Experimental data reported in patent publication US20210220356A1, “DIHYDROPYRIMIDINE DERIVATIVES AND USES THEREOF IN THE TREATMENT OF HBV INFECTION OR OF HBV-INDUCED DISEASES” (Janssen Sciences Ireland Unlimited Company, priority 2018, published 2021).
Where two headings read alike, the source gives them in different places.

What was measured:
HBV = HBV inhibitory activity in HepG2.2.15 cells (HBV DNA in culture medium by q-PCR); format: cell-based; details: HepG2.2.15 cells, 40,000 cells/well, 6 days of compound treatment, HBV DNA in culture medium by q-PCR, highest concentration 10 uM, read-out: EC50
Method: (§1) • HepG2.2.15 (the HepG2.2.15 cell line can be produced by transfection of the HepG2 cell line as described in Sells, Chen, and Acs 1987 (Proc. Natl. Acad. Sci. USA 84: 1005-1009), and the HepG2 cell line is available from ATCC® under number HB-8065™)
(§2) Seed the cell HepG2.2.15 cells into 96-well plate in 2% FBS culture medium at the density of 40,000 cells/well and 5,000 cells/well for HBV inhibitory activity and cytotoxicity determination, respectively. After seeding, incubate the cell plates at 37° C., 5% CO2 overnight. The next day, medium containing compounds is added to the cell to treat the cells for 6 days with medium refreshed once in the middle of the treatment. 8 dose points with 3 folds dilution of each compound were adopted and the highest concentration of the compounds is 10 uM and 100 uM for HBV inhibitory activity and cytotoxicity determination, respectively.
The HBV DAN change in the cell culture medium induced by the compounds is measured by q-PCR method. Briefly, the HBV DNA in the culture medium is extracted using QIAamp 96 DNA Blood Kit according to the manual and then quantified by q-PCR using the primers and probe in the table below.
(§3) EC50 and CC50 values are calculated by the GRAPHPAD PRISM software.

HepG2.2.15 cells = assay: Cytotoxicity determination in HepG2.2.15 cells (CCK-8); format: cell-based; details: HepG2.2.15 cells, 5,000 cells/well, 6 days of compound treatment, CCK-8 absorbance 450 nm, highest concentration 100 uM
Method: as §1, §2
After 6 days of compounds treatment, add 20 μl CCK-8 reagents to each well of cytotoxicity assay plates, incubate the plate at 37° C., 5% CO2 for 2.5 h and measure the absorbance at 450 nm wavelength, at the same time read the absorbance at 630 nm wavelength as reference.
as §3

[1] = Hepatitis B virus, HepG2.2.15, 144 h

Structure (SMILES)	EC50 (HBV) [µM]	CC50 (HepG2.2.15 cells) [µM]	EC50 (HBV; [1]) [µM]
CCOC(=O)C1=C(C2CCc3nn(C(C)CC(=O)O)cc3C2)NC(c2nccs2)=NC1c1ccc(F)c(F)c1Cl (single isomer, unassigned) [Compound 51c, 3-(5-(6-(2-chloro-3,4-difluorophenyl)-5-(ethoxycarbonyl)-2-(thiazol-2-yl)-3,6-dihydropyrimidin-4-yl)-4,5,6,7-tetrahydro-2H-indazol-2-yl)butanoic acid]	0.0097	8.6	–
CCOC(=O)C1=C(C2CCc3nn(CC(C)(C)C(=O)O)cc3C2)NC(c2nccs2)=NC1c1ccc(F)c(F)c1Cl (single isomer, unassigned) [Compound 53b, 3-(5-(6-(2-Chloro-3,4-difluorophenyl)-5-(ethoxycarbonyl)-2-(thiazol-2-yl)-3,6-dihydropyrimidin-4-yl)-4,5,6,7-tetrahydro-2H-indazol-2-yl)-2,2-dimethylpropanoic acid]	0.104	11.9	–
CCOC(=O)C1=C(C2CCc3nc(CCC(=O)O)sc3C2)NC(c2nccs2)=NC1c1ccc(F)c(F)c1Cl (single isomer, unassigned) [Compound 60c, 3-(6-(6-(2-Chloro-3,4-difluorophenyl)-5-(ethoxycarbonyl)-2-(thiazol-2-yl)-3,6-dihydropyrimidin-4-yl)-4,5,6,7-tetrahydrobenzo[d]thiazol-2-yl)propanoic acid]	0.0135	5.5	–
CCOC(=O)C1=C(C2Cc3cn(CCC(=O)O)nc3C(C)(C)C2)NC(c2nccs2)=NC1c1ccc(F)c(F)c1Cl (stereo not drawn) [Compound 55c, 3-(5-(6-(2-chloro-3,4-difluorophenyl)-5-(ethoxycarbonyl)-2-(thiazol-2-yl)-3,6-dihydropyrimidin-4-yl)-7,7-dimethyl-4,5,6,7-tetrahydro-2H-indazol-2-yl)propanoic acid]	0.0095	7.1	–
CCOC(=O)C1=C(C2CCc3sc(CCC(=O)O)nc3C2)NC(c2nccs2)=NC1c1ccc(F)c(F)c1Cl (single isomer, unassigned) [Compound 59f, 3-(5-(6-(2-Chloro-3,4-difluorophenyl)-5-(ethoxycarbonyl)-2-(thiazol-2-yl)-3,6-dihydropyrimidin-4-yl)-4,5,6,7-tetrahydrobenzo[d]thiazol-2-yl)propanoic acid]	0.209	5.8	–
COC(=O)C1=C(C2CCc3nc([C@H]4CC[C@H](C(=O)O)CC4)oc3C2)NC(c2nccs2)=NC1c1ccc(F)c(F)c1Cl (single isomer, unassigned) [Compound 86b, (trans)-4-(6-(6-(2-chloro-3,4-difluorophenyl)-5-(methoxycarbonyl)-2-(thiazol-2-yl)-3,6-dihydropyrimidin-4-yl)-4,5,6,7-tetrahydrobenzo[d]oxazol-2-yl)cyclohexanecarboxylic acid]	–	8.7	0.064
CCOC(=O)C1=C(C2CCc3nn(CCC(=O)O)cc3C2)NC(c2nccs2)=NC1c1cccc(F)c1C (single isomer, unassigned) [Compound 41b, 3-(5-(5-(Ethoxycarbonyl)-6-(3-fluoro-2-methylphenyl)-2-(thiazol-2-yl)-3,6-dihydropyrimidin-4-yl)-4,5,6,7-tetrahydro-2H-indazol-2-yl)propanoic acid]	0.292	6.6	–
CCOC(=O)C1=C(C2CCc3nn(CC(=O)O)cc3C2)NC(c2nccs2)=NC1c1ccc(F)c(F)c1Cl (single isomer, unassigned) [Compound 49c]	0.11	25.4	–
COC(=O)C1=C(C2CCc3nc([C@H]4CC[C@H](C(=O)O)CC4)oc3C2)NC(c2nccs2)=NC1c1ccc(F)c(F)c1Cl (single isomer, unassigned) [Compound 86d, (trans)-4-(6-(6-(2-chloro-3,4-difluorophenyl)-5-(methoxycarbonyl)-2-(thiazol-2-yl)-3,6-dihydropyrimidin-4-yl)-4,5,6,7-tetrahydrobenzo[d]oxazol-2-yl)cyclohexanecarboxylic acid]	0.0614	4.3	–
COC(=O)C1=C(C2CCc3nc([C@H]4C[C@H](C(=O)O)C4)sc3C2)NC(c2nccs2)=NC1c1ccc(F)c(F)c1Cl (single isomer, unassigned) [Compound 68c, (trans)-3-(6-(-6-(2-chloro-3,4-difluorophenyl)-5-(methoxycarbonyl)-2-(thiazol-2-yl)-3,6-dihydropyrimidin-4-yl)-4,5,6,7-tetrahydrobenzo[d]thiazol-2-yl)cyclobutanecarboxylic acid]	0.00645	3.6	–
CCOC(=O)C1=C(C2CCc3nn(CCC(=O)O)cc3C2)NC(c2nccs2)=NC1c1ccc(F)c(F)c1Cl (single isomer, unassigned) [Compound 34d, 3-(5-(6-(2-chloro-3,4-difluorophenyl)-5-(ethoxycarbonyl)-2-(thiazol-2-yl)-3,6-dihydropyrimidin-4-yl)-4,5,6,7-tetrahydro-2H-indazol-2-yl)propanoic acid]	0.146	20.6	–
CCOC(=O)C1=C(C2CCc3nn(CCC(=O)O)cc3C2)NC(c2nccs2)=NC1c1ccc(F)c(F)c1Cl (single isomer, unassigned) [Compound 34c, 3-(5-(6-(2-chloro-3,4-difluorophenyl)-5-(ethoxycarbonyl)-2-(thiazol-2-yl)-3,6-dihydropyrimidin-4-yl)-4,5,6,7-tetrahydro-2H-indazol-2-yl)propanoic acid]	< 0.0046	14.9	–
CCOC(=O)C1=C(C2CCc3nn(CCC(=O)O)cc3C2)NC(c2nccs2)=NC1c1ccc(F)cc1C (single isomer, unassigned) [Compound 38b, 3-(5-(5-(Ethoxycarbonyl)-6-(4-fluoro-2-methylphenyl)-2-(thiazol-2-yl)-3,6-dihydropyrimidin-4-yl)-4,5,6,7-tetrahydro-2H-indazol-2-yl)propanoic acid]	0.667	22.9	–
CCOC(=O)C1=C(C2CCc3nn(C(C)CC(=O)O)cc3C2)NC(c2nccs2)=NC1c1ccc(F)c(F)c1Cl (single isomer, unassigned) [Compound 52b, 3-(5-(6-(2-chloro-3,4-difluorophenyl)-5-(ethoxycarbonyl)-2-(thiazol-2-yl)-3,6-dihydropyrimidin-4-yl)-4,5,6,7-tetrahydro-2H-indazol-2-yl)butanoic acid]	–	5.8	–
COC(=O)C1=C(C2CCc3nn(CCC(=O)O)cc3C2)NC(c2nccs2)=NC1c1cccc(F)c1Cl (single isomer, unassigned) [Compound 44c, 3-(5-(6-(2-Chloro-3-fluorophenyl)-5-(methoxycarbonyl)-2-(thiazol-2-yl)-3,6-dihydropyrimidin-4-yl)-4,5,6,7-tetrahydro-2H-indazol-2-yl)propanoic acid]	0.0329	36.7	–
COC(=O)C1=C(C2CCc3nc([C@H]4C[C@H](C(=O)O)C4)sc3C2)NC(c2nccs2)=NC1c1ccc(F)c(F)c1Cl (single isomer, unassigned) [Compound 68b, (trans)-3-(-6-(-6-(2-chloro-3,4-difluorophenyl)-5-(methoxycarbonyl)-2-(thiazol-2-yl)-3,6-dihydropyrimidin-4-yl)-4,5,6,7-tetrahydrobenzo[d]thiazol-2-yl)cyclobutanecarboxylic acid]	–	8.3	0.009
CCOC(=O)C1=C(C2CCc3nn(CCC(=O)O)cc3C2)NC(c2nccs2)=NC1c1cccc(F)c1Cl (single isomer, unassigned) [Compound 40c, 3-(5-(6-(2-Chloro-3-fluorophenyl)-5-(ethoxycarbonyl)-2-(thiazol-2-yl)-3,6-dihydropyrimidin-4-yl)-4,5,6,7-tetrahydro-2H-indazol-2-yl)propanoic acid]	0.0331	12.5	–
CCOC(=O)C1=C(C2CCc3nn(CCC(=O)O)cc3C2)NC(c2nccs2)=NC1c1cccc(F)c1C (single isomer, unassigned) [Compound 41c, 3-(5-(5-(Ethoxycarbonyl)-6-(3-fluoro-2-methylphenyl)-2-(thiazol-2-yl)-3,6-dihydropyrimidin-4-yl)-4,5,6,7-tetrahydro-2H-indazol-2-yl)propanoic acid]	0.0304	14.4	–
COC(=O)C1=C(C2CCc3[nH]ncc3C2)NC(c2nccs2)=NC1c1ccc(F)c(F)c1Cl (single isomer, unassigned) [Compound 65b, Methyl 4-(2-chloro-3,4-difluorophenyl)-6-(4,5,6,7-tetrahydro-1H-indazol-5-yl)-2-(thiazol-2-yl)-1,4-dihydropyrimidine-5-carboxylate]	2.67	6.3	–
CCOC(=O)C1=C(C2CCc3nn(CCC(=O)O)cc3C2)NC(c2nccs2)=NC1c1ccc(F)cc1C (single isomer, unassigned) [Compound 38c, 3-(5-(5-(Ethoxycarbonyl)-6-(4-fluoro-2-methylphenyl)-2-(thiazol-2-yl)-3,6-dihydropyrimidin-4-yl)-4,5,6,7-tetrahydro-2H-indazol-2-yl)propanoic acid]	0.0146	19.6	–
